In ChEMBL document CHEMBL1671627, “Increasing trends in antimicrobial resistance among clinically important anaerobes and Bacteroides fragilis isolates causing nosocomial infections: emerging resistance to carbapenems” (2008):

Tests used:
[1] = tested on: Bacteroides fragilis; experiment: Antibacterial activity against Bacteroides fragilis assessed as susceptible isolates by CLSI agar dilution method; assay type: functional
[2] = tested on: Bacteroides fragilis; experiment: Antibacterial activity against Bacteroides fragilis assessed as resistant isolates by CLSI agar dilution method; assay type: functional
[3] = tested on: Bacteroides thetaiotaomicron; experiment: Antibacterial activity against beta-lactamase producing Bacteroides thetaiotaomicron assessed as susceptible isolates by CLSI agar dilution method; assay type: functional
[4] = tested on: Bacteroides thetaiotaomicron; experiment: Antibacterial activity against beta-lactamase producing Bacteroides thetaiotaomicron assessed as resistant isolates by CLSI agar dilution method; assay type: functional
[5] = tested on: Phocaeicola vulgatus; experiment: Antibacterial activity against beta-lactamase producing Bacteroides vulgatus by CLSI agar dilution method; assay type: functional
[6] = tested on: Phocaeicola vulgatus; experiment: Antibacterial activity against beta-lactamase producing Bacteroides vulgatus assessed as susceptible isolates by CLSI agar dilution method; assay type: functional
[7] = tested on: Phocaeicola vulgatus; experiment: Antibacterial activity against beta-lactamase producing Bacteroides vulgatus assessed as resistant isolates by CLSI agar dilution method; assay type: functional
[8] = tested on: Bacteroides uniformis; experiment: Antibacterial activity against beta-lactamase producing Bacteroides uniformis by CLSI agar dilution method; assay type: functional
[9] = tested on: Bacteroides uniformis; experiment: Antibacterial activity against beta-lactamase producing Bacteroides uniformis assessed as susceptible isolates by CLSI agar dilution method; assay type: functional
[10] = tested on: Bacteroides uniformis; experiment: Antibacterial activity against beta-lactamase producing Bacteroides uniformis assessed as resistant isolates by CLSI agar dilution method; assay type: functional
[11] = tested on: Bacteroides caccae; experiment: Antibacterial activity against beta-lactamase producing Bacteroides caccae by CLSI agar dilution method; assay type: functional
[12] = tested on: Bacteroides caccae; experiment: Antibacterial activity against beta-lactamase producing Bacteroides caccae assessed as susceptible isolates by CLSI agar dilution method; assay type: functional
[13] = tested on: Bacteroides caccae; experiment: Antibacterial activity against beta-lactamase producing Bacteroides caccae assessed as resistant isolates by CLSI agar dilution method; assay type: functional
[14] = tested on: Fusobacterium varium; experiment: Antibacterial activity against Fusobacterium varium by CLSI agar dilution method; assay type: functional
[15] = tested on: Fusobacterium nucleatum; experiment: Antibacterial activity against Fusobacterium nucleatum by CLSI agar dilution method; assay type: functional
[16] = tested on: Fusobacterium mortiferum; experiment: Antibacterial activity against Fusobacterium mortiferum by CLSI agar dilution method; assay type: functional
[17] = tested on: Fusobacterium necrophorum; experiment: Antibacterial activity against Fusobacterium necrophorum by CLSI agar dilution method; assay type: functional
[18] = tested on: Fusobacterium varium; experiment: Antibacterial activity against Fusobacterium varium assessed as susceptible isolates by CLSI agar dilution method; assay type: functional
[19] = tested on: Fusobacterium nucleatum; experiment: Antibacterial activity against Fusobacterium nucleatum assessed as susceptible isolates by CLSI agar dilution method; assay type: functional
[20] = tested on: Fusobacterium mortiferum; experiment: Antibacterial activity against Fusobacterium mortiferum assessed as susceptible isolates by CLSI agar dilution method; assay type: functional
[21] = tested on: Fusobacterium necrophorum; experiment: Antibacterial activity against Fusobacterium necrophorum assessed as susceptible isolates by CLSI agar dilution method; assay type: functional
[22] = tested on: Fusobacterium varium; experiment: Antibacterial activity against Fusobacterium varium assessed as resistant isolates by CLSI agar dilution method; assay type: functional
[23] = tested on: Fusobacterium nucleatum; experiment: Antibacterial activity against Fusobacterium nucleatum assessed as resistant isolates by CLSI agar dilution method; assay type: functional
[24] = tested on: Fusobacterium mortiferum; experiment: Antibacterial activity against Fusobacterium mortiferum assessed as resistant isolates by CLSI agar dilution method; assay type: functional
[25] = tested on: Fusobacterium necrophorum; experiment: Antibacterial activity against Fusobacterium necrophorum assessed as resistant isolates by CLSI agar dilution method; assay type: functional
[26] = tested on: Prevotella buccae; experiment: Antibacterial activity against Prevotella buccae by CLSI agar dilution method; assay type: functional; conditions: Segatella buccae
[27] = tested on: Prevotella bivia; experiment: Antibacterial activity against Prevotella bivia by CLSI agar dilution method; assay type: functional
[28] = tested on: Prevotella intermedia; experiment: Antibacterial activity against Prevotella intermedia by CLSI agar dilution method; assay type: functional
[29] = tested on: Prevotella melaninogenica; experiment: Antibacterial activity against Prevotella melaninogenica by CLSI agar dilution method; assay type: functional
[30] = tested on: Prevotella buccae; experiment: Antibacterial activity against Prevotella buccae assessed as susceptible isolates by CLSI agar dilution method; assay type: functional, Segatella buccae
[31] = tested on: Prevotella bivia; experiment: Antibacterial activity against Prevotella bivia assessed as susceptible isolates by CLSI agar dilution method; assay type: functional
[32] = tested on: Prevotella intermedia; experiment: Antibacterial activity against Prevotella intermedia assessed as susceptible isolates by CLSI agar dilution method; assay type: functional
[33] = tested on: Prevotella melaninogenica; experiment: Antibacterial activity against Prevotella melaninogenica assessed as susceptible isolates by CLSI agar dilution method; assay type: functional
[34] = tested on: Prevotella buccae; experiment: Antibacterial activity against Prevotella buccae assessed as resistant isolates by CLSI agar dilution method; assay type: functional, Segatella buccae
[35] = tested on: Prevotella bivia; experiment: Antibacterial activity against Prevotella bivia assessed as resistant isolates by CLSI agar dilution method; assay type: functional
[36] = tested on: Prevotella intermedia; experiment: Antibacterial activity against Prevotella intermedia assessed as resistant isolates by CLSI agar dilution method; assay type: functional
[37] = tested on: Prevotella melaninogenica; experiment: Antibacterial activity against Prevotella melaninogenica assessed as resistant isolates by CLSI agar dilution method; assay type: functional
[38] = tested on: Veillonella parvula; experiment: Antibacterial activity against Veillonella parvula by CLSI agar dilution method; assay type: functional
[39] = tested on: Clostridium perfringens; experiment: microbe, parasite or virus in culture; assay type: functional
[40] = tested on: Clostridium paraputrificum; experiment: Antibacterial activity against beta-lactamase producing Clostridium paraputrificum by CLSI agar dilution method; assay type: functional
[41] = tested on: Clostridium septicum; experiment: Antibacterial activity against beta-lactamase producing Clostridium septicum by CLSI agar dilution method; assay type: functional
[42] = tested on: Clostridium tertium; experiment: Antibacterial activity against beta-lactamase producing Clostridium tertium by CLSI agar dilution method; assay type: functional
[43] = tested on: Clostridium paraputrificum; experiment: Antibacterial activity against beta-lactamase producing Clostridium paraputrificum assessed as susceptible isolates by CLSI agar dilution method; assay type: functional
[44] = tested on: Clostridium septicum; experiment: Antibacterial activity against beta-lactamase producing Clostridium septicum assessed as susceptible isolates by CLSI agar dilution method; assay type: functional
[45] = tested on: Clostridium tertium; experiment: Antibacterial activity against beta-lactamase producing Clostridium tertium assessed as susceptible isolates by CLSI agar dilution method; assay type: functional
[46] = tested on: Bacteroides fragilis; experiment: Antibacterial activity against Bacteroides fragilis by CLSI agar dilution method; assay type: functional
[47] = tested on: Bacteroides thetaiotaomicron; experiment: Antibacterial activity against beta-lactamase producing Bacteroides thetaiotaomicron by CLSI agar dilution method; assay type: functional
[48] = tested on: Clostridium paraputrificum; experiment: Antibacterial activity against beta-lactamase producing Clostridium paraputrificum assessed as resistant isolates by CLSI agar dilution method; assay type: functional
[49] = tested on: Clostridium septicum; experiment: Antibacterial activity against beta-lactamase producing Clostridium septicum assessed as resistant isolates by CLSI agar dilution method; assay type: functional
[50] = tested on: Clostridium tertium; experiment: Antibacterial activity against beta-lactamase producing Clostridium tertium assessed as resistant isolates by CLSI agar dilution method; assay type: functional
[51] = tested on: Peptostreptococcus anaerobius; experiment: Antibacterial activity against beta-lactamase producing Peptostreptococcus anaerobius by CLSI agar dilution method; assay type: functional
[52] = tested on: Peptostreptococcus anaerobius; experiment: Antibacterial activity against beta-lactamase producing Peptostreptococcus anaerobius assessed as susceptible isolates by CLSI agar dilution method; assay type: functional
[53] = tested on: Peptostreptococcus anaerobius; experiment: Antibacterial activity against beta-lactamase producing Peptostreptococcus anaerobius assessed as resistant isolates by CLSI agar dilution method; assay type: functional
[54] = tested on: Parvimonas micra; experiment: Antibacterial activity against beta-lactamase producing Micromonas micros by CLSI agar dilution method; assay type: functional
[55] = tested on: Parvimonas micra; experiment: Antibacterial activity against beta-lactamase producing Micromonas micros assessed as susceptible isolates by CLSI agar dilution method; assay type: functional
[56] = tested on: Parvimonas micra; experiment: Antibacterial activity against beta-lactamase producing Micromonas micros assessed as resistant isolates by CLSI agar dilution method; assay type: functional
[57] = tested on: Peptoniphilus asaccharolyticus; experiment: Antibacterial activity against beta-lactamase producing Peptoniphilus asaccharolyticus by CLSI agar dilution method; assay type: functional
[58] = tested on: Peptoniphilus asaccharolyticus; experiment: Antibacterial activity against beta-lactamase producing Peptoniphilus asaccharolyticus assessed as susceptible isolates by CLSI agar dilution method; assay type: functional
[59] = tested on: Peptoniphilus asaccharolyticus; experiment: Antibacterial activity against beta-lactamase producing Peptoniphilus asaccharolyticus assessed as resistant isolates by CLSI agar dilution method; assay type: functional
[60] = tested on: Finegoldia magna; experiment: Antibacterial activity against beta-lactamase producing Finegoldia magna by CLSI agar dilution method; assay type: functional
[61] = tested on: Finegoldia magna; experiment: Antibacterial activity against beta-lactamase producing Finegoldia magna assessed as susceptible isolates by CLSI agar dilution method; assay type: functional
[62] = tested on: Finegoldia magna; experiment: Antibacterial activity against beta-lactamase producing Finegoldia magna assessed as resistant isolates by CLSI agar dilution method; assay type: functional

O=C(N[C@H](CO)[C@H](O)c1ccc([N+](=O)[O-])cc1)C(Cl)Cl [CHLORAMPHENICOL]
97%: Activity [1] | Activity [3]
0%: Activity [4] | Activity [34] | Activity [35] | Activity [36] | Activity [37] | Activity [48] | Activity [49] | Activity [50]
100%: Activity [30] | Activity [31] | Activity [32] | Activity [33]
8 µg/mL: MIC90 [5] | MIC90 [8] | MIC90 [11] | MIC90 [26] | MIC90 [27] | MIC90 [28] | MIC90 [29] | MIC90 [39] | MIC90 [40] | MIC90 [41] | MIC90 [42] | MIC90 [46] | MIC90 [47]
89%: Activity [43] | Activity [44] | Activity [45]
96%: Activity [6] | Activity [9] | Activity [12] | Activity [18] | Activity [19] | Activity [20] | Activity [21]
3%: Activity [2]
1 µg/mL: MIC [38] | MIC [51] | MIC50 [51] | MIC [54] | MIC50 [54] | MIC [57] | MIC50 [57] | MIC [60] | MIC50 [60]
6%: Activity [53] | Activity [56] | Activity [59] | Activity [62]
2 µg/mL: MIC50 [14] | MIC90 [14] | MIC50 [15] | MIC90 [15] | MIC50 [16] | MIC90 [16] | MIC50 [17] | MIC90 [17]
4 µg/mL: MIC50 [5] | MIC50 [8] | MIC50 [11] | MIC50 [26] | MIC50 [27] | MIC50 [28] | MIC50 [29] | MIC50 [39] | MIC50 [40] | MIC50 [41] | MIC50 [42] | MIC50 [46] | MIC [47] | MIC50 [47] | MIC90 [51] | MIC90 [54] | MIC90 [57] | MIC90 [60]
4%: Activity [7] | Activity [10] | Activity [13] | Activity [22] | Activity [23] | Activity [24] | Activity [25]
94%: Activity [52] | Activity [55] | Activity [58] | Activity [61]
